Test results reported in patent US11529436B2, “Engineered three-dimensional skin tissues, arrays thereof, and methods of making the same” (Organovo, Inc., priority 2014, dated 2022).

How the values were obtained:
[1] = test system: bioprinted full thickness skin tissue; assay: Histological analysis of bioprinted skin tissue after irritant treatment (H&E, CK5/IVL, CK10, collagen 3, PCNA, TUNEL); format: cell-based, human; details: 1% TRITON X-100, 1 hour exposure
Text: (§1) Bio-ink was generated by a cellular mixture of 100% primary adult human dermal fibroblasts (HDFa) in 8% gelatin (NOVOGEL 2.0) at a concentration of 100 million cells per milliliter. The cell: gelatin ratio was altered to reduce the cellular density of the dermal sheet to better mimic dermal tissue in native skin. Three-dimensional bio-ink constructs were printed by continuous deposition using the NOVOGEN BIOPRINTER platform in a 4 mm×4 mm×0.5 mm base to create a dermal structure resembling a sheet. One tissue construct was printed per transwell in a 6-well plate. The transwell printing surface contained a polytetrafluoroethylene (PTFE) membrane coated with equimolar mixture of types I and III collagen (bovine) with pores 3 μm in size. Epidermal cell paste containing a mixture of 100% primary neonatal human epidermal keratinocytes (HEKn) was then printed on top of the dermal bio-ink. Cell paste was measured post print at 87.1% viable by trypan exclusion assay. Cell numbers in the deposited epidermal layer was estimated at 60,000 cells by cell counting on a Cell-O-Meter. Immediately following the print, constructs were placed at 4° C. for 10 minutes. Cold media was then added to the outer well of the transwell in a volume of 3 ml. The media used for subsequent growth and maintenance of the skin tissue was a 50:50 ratio of HDFa: HEKn media. The initial volume added was sufficient to submerge the structure. All subsequent media changes used warmed media (37° C.) added to the outer well of the transwell and not to the inner basket. Media was changed 48 hours later and reduced to a volume of 1.5 ml per well to bring the structure to an air-liquid interface (ALI). Media and subsequently changed 48 hours after that (day 4) at a volume of 1.5 ml. On day 5, media was changed and further reduced to 1 ml per well and subsequently changed daily. On day 10, skin tissues were subject to a skin irritation test method using 1% TRITON X-100. 1% TRITON X-100 is a known irritant and reference chemical currently used in other 3D skin models. Methods were based on OECD guidelines 439 and 431 for applying human skin models to in vitro skin irritation or corrosion, respectively. On day 10, conditioned media was saved (designated time=0) and 1 ml of fresh media was added to the outer well of the transwell. The printed skin tissue was then treated with 20 μl of PBS as a negative control or with 20 μl of 1% TRITON X-100 as a positive control and known irritant. Test substances were pipetted manually to the apical surface of the tissue. TRITON X-100 was diluted to a 1% aqueous solution in deionized water and sterile filtered through a 20 micron filter before use. Samples were incubated for 30 minutes at 37° C. followed by 30 minutes at room temperature for a total of 60 minutes. Media was saved (designated time=1 hour). Samples were then washed extensively by PBS rinsing. Transwells were then placed in a new 6-well plate with fresh media (1 ml) added to the outer well then placed back into 37° C. overnight. The media was then changed at 24 hours and at 48 hours post treatment. Total media collected included time points=−48, 0, 1, 24, and 48 hours. IL-1α production (R&D Systems) was analyzed in a colorimetric assays per manufacturer's protocol. Media was analyzed for lactate dehydrogenase as a marker for cytotoxicity. IL-1α production was assessed as a complementary endpoint to classic cytotoxicity testing to improve predictability of irritants. Keratinocytes normally produce and release inflammatory cytokine IL-1α in response to chemical or physical stress. At 48 hours post treatment (day 12), tissues were either lysed for RNA extraction and subsequent qPCR analysis, or tested for viability by alamar blue assay then rinsed in PBS and fixed with 2% PFA for histological analysis. Alamar blue (Life Technologies) was added per manufacturer's instructions to media and incubated with tissue constructs (1 ml) at 37° C. for 3 hours. […]

[2] = test system: bioprinted full thickness skin tissue; assay: Gene expression (qPCR) analysis of bioprinted skin tissue after irritant treatment; format: cell-based, human; details: 1% TRITON X-100, 1 hour exposure
Text: as §1, with “Test substances were pipetted manually to the apical surface of the tissue. TRITON X-100 was diluted to a 1% aqueous solution in deionized water and sterile filtered through a 20 micron filter before use. Samples were incubated for 30 minutes at 37° C. followed by 30 minutes at room temperature for a total of 60 minutes. Media was saved (designated time=1 hour). Samples were then washed extensively by PBS rinsing. Transwells were then placed in a new 6-well plate with fresh media (1 ml) added to the outer well then placed back into 37° C. overnight. The media was then changed at 24 hours and at 48 hours post treatment. Total media collected included time points=−48, 0, 1, 24, and 48 hours.” left out, “irritants.” for “irritants. Keratinocytes normally produce and release inflammatory cytokine IL-1α in response to chemical or physical stress. At 48 hours post treatment (day 12), tissues were either lysed for RNA extraction and subsequent qPCR analysis, or tested for viability by alamar blue assay then rinsed in PBS and fixed with 2% PFA for histological analysis. Alamar blue (Life Technologies) was added per manufacturer's instructions to media and incubated with tissue constructs (1 ml) at 37° C. for 3 hours.”

[3] = 48 hours post treatment (day 12)

## TRITON X-100
[1]; [3]
  CK5 positive basal keratinocyte layer: fragmented
  Collagen 3 staining compared to the PBS control: reduction in dermal fibroblast function
  H&E histology: separation of the epidermal and dermal layers
  macroscopic appearance of treated tissues: appeared similar to PBS control tissues macroscopically
[1]; dermal fibroblasts and basal layer, day 12
  proliferation by PCNA staining: reduction in proliferation
[1]; dermal layer, day 12
  apoptosis by TUNEL staining: increase in apoptosis
[2]; 48 hours post exposure
  CK1 and CK10 gene expression: reduced
  collagen production of types 1, 3, and 4 collagen (gene expression): reduced
  expression of both epidermal and dermal markers: dramatically reduces
[2]; 48 hours post treatment
  IL1α gene expression increase in comparison to the PBS control: about 3 fold
